The nature of data set [1]: Stability of peptides in cells (inferred from WST-1 assay). As to conditions: deduced from WST-1 results after 48 hours of incubation. A general note: Tetrazolium dyes change colour on reduction, which living cells bring about.
Data set [2] deals with p53 tetramerization domain (residues, 325–355). As to conditions: ref [49]; cited from earlier work. From the text:
(§1) With a helix–loop–helix pattern, these proteins are site-specific and form homo and heterodimers. These proteins interact with copper, zinc, and calcium ions, and calcium-binding facilitates a variety of extracellular and intracellular governing consequences of these proteins. […] Further, it was also found to connect with the p53 tetrameriza ...

The subject of data set [3] is C-terminal domain (residues, 293–393). The settings on record: monomeric fragment versus tetrameric form; ref [50]; cited from earlier work.
From the text: as §1

Data set [4] relates to p53 peptide (residues, 367–393). As to conditions: ref [49]; cited from earlier work.
From the text: as §1

Data set [5] deals with p53 transactivation domain (residues, 1–57). As to conditions: fluorescence anisotropy; ref [50]; cited from earlier work.
From the text: as §1
(In general: Polarisation of emitted light reports the rotation of a fluorescent probe.)

Data set [6] deals with phosphorylated p53 N-terminus. The settings on record: single-site phosphorylation, fluorescence anisotropy; ref [51]; cited from earlier work.
From the text: as §1

For data set [7], the system named is MDM2 N- terminal domain (2–125). As to conditions: ref [52]; cited from earlier work.
From the text: as §1

The conditions of data set [8]: HIV-TAT alone; ref [79]; cited from earlier work. From the text: [79] […] The (LLKK)3 imparts an amphiphilic α-helical conformation to the peptide that disrupts the cellular membranes. […] [81] Altogether it can be inferred that the TAT sequence has a very minimal effect to the confirmation of the conjugated partner under consideratio ...
For data set [9], the system named is various cell lines including MCF-7. Also noted: method as in PMID 19914216. The settings on record: ref [85], cited from earlier work.
A further data set has as its system HeLa cells. The settings on record: N-terminal fluorescein tagged, even after five hours; ref [86]; cited from earlier work. From the text: [86] […] [85] […] [ ...
The conditions of data set [10]: ref [77]; cited from earlier work. From the text: We selected residues from 76 to 92 (17 residues) for our peptide construction.
Another data set has as its system MDM2 (17–125). The settings on record: p53 (1–73), besides helix region (18–26); ref [70]; cited from earlier work.
For the next data set, the system named is MDM2-p53 complex. The data set is described as follows: HSQC-NMR competitive binding experiment. Also noted: species or system human. As to conditions: unlabeled p53 added to 15N-labeled MDM2, 1:1, pH 7.2. As for the experimental part:
HSQC- NMR competitive binding experiment
All the experiments were carried out in the NMR buffer containing 20 mM Tris-HCl, 15 mM NaCl, 20 mM CaCl2, 20 mM DTT, 0.1% NaN3, and 10% D2O; pH 7.2.

Data set [11] addresses T1, p53-TAD (residues 1-73), N-terminal domain of p53 (UniProt P04637 1-73).
T1 construct: cleaved protein of 8.6 kDa; plasmid a gift of G. Daughdrill; Used unlabelled or 15N-labelled; also called p53 (1-73); p53 N-terminal domain; source: bacterial cells in M9 media, purified (Ni-NTA, thrombin digestion, Superdex 75)
Nature of the data set: other fluorescence titration; tryptophan fluorescence of p53 (1-73), excitation 295 nm; Peptide 1 0 to 12.0 uM added to 2 uM p53; 20 mM Tris-HCl, 15 mM NaCl, 20 mM CaCl2, 20 mM DTT, 0.1% NaN3, pH 7.2. As to conditions: both partners purified.

Data on 5 molecules can be found in PMC7272100 (PLoS ONE, 2020).

By Kd is commonly meant the equilibrium constant for the complex coming apart. Low readings indicate tighter binding, high ones weaker binding.

T1 sequence (P04637 1-73): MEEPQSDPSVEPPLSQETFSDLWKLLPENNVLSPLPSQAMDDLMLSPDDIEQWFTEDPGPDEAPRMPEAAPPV

As to `CC(C)C[C@H](NC(=O)[C@H](C)NC(=O)[C@H](C)NC(=O)[C@@H](NC(=O)[C@H](CC(C)C)NC(=O)[C@@H](NC(=O)[C@@H](NC(=O)[C@H](CCCNC(=N)N)NC(=O)[C@H](CCCNC(=N)N)NC(=O)[C@H](CCCNC(=N)N)NC(=O)[C@H](CCC(N)=O)NC(=O)[C@H](CCCNC(=N)N)NC(=O)[C@H](CCCNC(=N)N)NC(=O)[C@H](CCCCN)NC(=O)[C@H](CCCCN)NC(=O)[C@H](CCCNC(=N)N)NC(=O)CNC(=O)[C@@H](N)Cc1ccc(O)cc1)C(C)C)C(C)C)C(C)C)C(=O)N[C@H](C(=O)N[C@H](C(=O)N[C@@H](C)C(=O)N[C@@H](CS)C(=O)N[C@@H](CC(N)=O)C(=O)N[C@@H](CC(N)=O)C(=O)N[C@@H](Cc1ccccc1)C(=O)N[C@@H](Cc1ccccc1)C(=O)N[C@@H](Cc1c[nH]c2ccccc12)C(=O)N[C@@H](CCC(=O)O)C(=O)O)C(C)C)[C@@H](C)O` [Peptide 1], the stability in cells entry in [1] was “quite stable”.

In the case of “S100A1: human S100A1 protein produced in BL21 (DE3) E. coli [Peptide S100A1]”, the “interaction with p53 TET domain (325–355)” value in data set [2] is “only interacted with the TET domain when its oligomerization state was lowered (monomers or dimers)”. Moreover, the “binding to p53 C-terminal domain (293–393)” value in data set [3] was “could bind to the monomeric fragment of the C-terminal domain (residues, 293–393) but unable to form a complex with the tetrameric form”. Also, the “association with p53 peptide (367–393)” value in [4] is on record as “found to associate with the p53 peptide (residues, 367–393)”. Further, in data set [5], the “binding to p53 transactivation domain (1–57)” value is “binding of S100A1 to the p53 transactivation domain (residues, 1–57)”. The “affinity of phosphorylated p53 N-terminus for S100A1” value in data set [6] was “increased affinity for S100A1”. Further, in data set [7], the “association with MDM2 N-terminal domain (2–125)” value is “found to associate with the MDM2 N- terminal domain (2–125) and does not lead to the formation of a ternary complex with MDM2 and p53”.

Consider YGRKKRRQRRR [TAT peptide], for which the “conformation by CD spectrum” value in data set [8] was “unstructured form”. For the same molecule, in data set [9] (above 5 μM), the “cytotoxicity of TAT peptide, above 5 μM” value is on record as 11–22%. Moreover, the “cytotoxicity of TAT peptide, up to 5 μM” value in data set [9] (up to 5 μM) is “non-toxic”. Further, the “stability of TAT peptide (cytoplasmic fluorescence)” value in the data set on HeLa cells is given as “quite stable”. Also, the “delivery of heterologous proteins” value in [10] is reported as “cytoplasmic delivery of heterologous proteins which was independent of the cell type”.

For the molecule p53 (1–73): p53-TAD (residues, 1–73), the “p53 regions able to bind to MDM2” value in the data set with MDM2 (17–125) is “nascent turns 1 (40–45) and 2 (49–54) are furthermore able to bind to MDM2”. The “effect on 15N labeled MDM2 HSQC peaks” value with MDM2-p53 complex is “several ^15N labeled MDM2 peaks were shifted and/or disappeared”.

B1: Peptide 1 (HIV-TAT + S100A1 derived peptide) (peptide)
peptide: YGRKKRRQRRRVVLVAALTVACNNFFWE
notes: HIV-TAT cell-penetrating segment derived from the TAT protein of human immunodeficiency virus; S100A1, human, C-terminal residues 76 to 92 (17 residues); 28 residues; the TAT segment stands N-terminal of the S100A1 stretch; also called fusion peptide; source: synthetic peptide, bought: Kelowna International Scientific Inc., >= 95% purity
B1 returned a Kd in data set [11] of roughly 590 nM.
